In patent US7241791B2, “Substituted 4-(indazol-3-yl)phenols” (Wyeth, priority 2002, dated 2007):
pEC50, pIC50: −log10 of the molar value.

How the values were obtained:
human ERα [1] = biological target: T1, human ERα (Homo sapiens, UniProt P03372); test: IL-6 expression (ELISA, ER/IL-6) in Ad5-wt-hERα infected HAECT-1 cells; settings: for ER/IL-6 % E2: efficacy relative to the maximal inhibition observed with E2
T1 sequence (P03372 1-595): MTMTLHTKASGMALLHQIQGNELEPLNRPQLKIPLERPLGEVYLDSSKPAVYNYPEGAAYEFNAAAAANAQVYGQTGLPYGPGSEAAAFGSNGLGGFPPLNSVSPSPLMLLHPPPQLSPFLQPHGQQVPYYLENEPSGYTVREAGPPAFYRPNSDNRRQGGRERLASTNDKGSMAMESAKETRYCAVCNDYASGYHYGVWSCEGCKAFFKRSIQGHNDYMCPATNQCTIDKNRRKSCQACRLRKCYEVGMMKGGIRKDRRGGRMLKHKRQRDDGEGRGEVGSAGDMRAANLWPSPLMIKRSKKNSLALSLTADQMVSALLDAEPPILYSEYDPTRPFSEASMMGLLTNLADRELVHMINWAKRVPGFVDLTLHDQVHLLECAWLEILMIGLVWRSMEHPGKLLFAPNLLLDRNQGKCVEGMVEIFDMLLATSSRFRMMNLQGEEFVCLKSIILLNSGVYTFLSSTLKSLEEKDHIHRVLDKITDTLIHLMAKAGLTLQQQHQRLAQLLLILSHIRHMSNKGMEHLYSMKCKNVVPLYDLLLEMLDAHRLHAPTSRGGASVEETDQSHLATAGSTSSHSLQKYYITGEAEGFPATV

human ERα [2] = biological target: T1, human ERα; test: Creatine kinase expression (ER/CK) in Ad5-wt-hERα infected HAECT-1 cells; settings: for ER/CK % E2: efficacy relative to the maximal stimulation observed with E2
human ERα [3] = biological target: T1, human ERα; test: NF-κB luciferase reporter (ER/NF-KB-luc) in Ad5-wt-hERα infected HAECT-1 cells; settings: for pIC50: ER/NF-KB-luc IC50, Ad5-wt-ER infected HAECT-1 cells, IL-1β; for Emax: HAECT1, read-out: ER/NF-KB-luc % E2, efficacy relative to the maximal inhibition observed with E2

| pIC50 (human ERα [1]) | ER/IL-6 % E2 (human ERα [1]) [% E2] | pEC50 (human ERα [2]) | ER/CK % E2 (human ERα [2]) [% E2] | pIC50 (human ERα [3]) | Emax (human ERα [3]) [%] | Structure (SMILES) |
| --- | --- | --- | --- | --- | --- | --- |
| 6.61 | 77 | 5.74 | 54 | 7.05 | 92 | Oc1ccc(-c2nn(-c3ccc(Br)cc3)c3cc(O)ccc23)c(O)c1 [Example 7, 4-[1-(4-bromophenyl)-6-hydroxy-1H-indazol-3-yl]benzene-1,3-di I] |
| 5.64 | 91 | 6.94 | 26 | 7.22 | 54 | COc1ccc(-n2nc(-c3ccc(O)cc3O)c3ccc(O)cc32)cc1 [Example 11, 4-[6-hydroxy-1-(4-methoxyphenyl)-1H-indazol-3-yl]benzene-1,3-diol] |
| 5.12 | 73 | 5.92 | 58 | 6.68 | 61 | COc1ccccc1-n1nc(-c2ccc(O)cc2O)c2ccc(O)cc21 [Example 12, 4-[6-hydroxy-1-(2-methoxyphenyl)-1H-indazol-3-yl]benzene-1,3-diol] |
| 6.22 | 83 | 6.08 | 47 | 6.88 | 97 | Oc1ccc(-c2nn(-c3ccc(OC(F)(F)F)cc3)c3cc(O)ccc23)c(O)c1 [Example 13, 4-{6-hydroxy-1-[4-(trifluoromethoxy)phenyl]-1H-indazol-3-yl}benzene-1,3-diol] |
| 6.12 | 67 | – | – | 7.28 | 73 | Oc1ccc(-c2nn(-c3cccc(Br)c3)c3cc(O)ccc23)c(O)c1 [Example 14, 4-[1-(3-bromophenyl)-6-hydroxy-1H-indazol-3-yl]benzene-1,3-diol] |
| 5.09 | 110 | – | – | 6.79 | 94 | N#Cc1ccc(-n2nc(-c3ccc(O)cc3O)c3ccc(O)cc32)cc1 [Example 15, 4-[3-(2,4-dihydroxyphenyl)-6-hydroxy-1H-indazol-1-yl]benzonitrile] |
| 7.09 | 58 | 6.36 | 45 | 7.02 | 79 | Oc1ccc(-c2nn(-c3ccccc3Cl)c3cc(O)ccc23)c(O)c1 [Example 16, 4-[1-(2-chlorophenyl)-6-hydroxy-1H-indazol-3-yl]benzene-1,3-diol] |
| 6.91 | 52 | 6.41 | 52 | 6.87 | 85 | Cn1nc(-c2ccc(O)cc2)c2cccc(Cl)c21 [Example 126, 4-(7-chloro-1-methyl-1H-indazol-3-yl)phenol] |
| 6.42 | 72 | 6.09 | 65 | 6.71 | 82 | Oc1ccc(-c2n[nH]c3cc(Cl)c(F)cc23)cc1 [Example 131, 4-(6-chloro-5-fluoro-1H-indazol-3-yl)phenol] |
| 6.48 | 40 | 6.14 | 36 | 6.74 | 67 | CCCCn1nc(-c2ccc(O)cc2)c2ccccc21 [Example 139, 4-(1-butyl-1H-indazol-3-yl)phenol] |
| 7.01 | 60 | 6.36 | 48 | 6.90 | 66 | Oc1ccc(-c2nn(Cc3ccccc3)c3c(F)cccc23)cc1 [Example 145, 4-(1-benzyl-7-fluoro-1H-indazol-3-yl)phenol] |
| 6.94 | 49 | 6.28 | 30 | 6.50 | 67 | Oc1ccc(-c2nn(Cc3ccccc3)c3c(Cl)cccc23)c(O)c1 [Example 149, 4-(1-benzyl-7-chloro-1H-indazol-3-yl)benzene-1,3-diol] |
| 7.19 | 65 | 6.44 | 38 | 7.19 | 69 | Cn1nc(-c2ccc(O)cc2)c2cccc(C(F)(F)F)c21 [Example 169, 4-[1-methyl-7-(trifluoromethyl)-1H-indazol-3-yl]phenol] |
| – | – | 6.78 | 17 | 7.52 | 84 | Cc1cc(O)ccc1-c1nn(C2CCCC2)c2c(-c3ccco3)cccc12 [Example 263, 4-[1-cyclopentyl-7-(2-furyl)-1H-indazol-3-yl)-3-methylphenol] |
| – | – | 7.82 | 21 | 7.82 | 74 | Cc1cc(O)ccc1-c1nn(C2CCCC2)c2c(-c3ccccc3C)cccc12 [Example 264, 4-[1-cyclopentyl-7-(2-methylphenyl)-1H-indazol-3-yl]-3-methyl-phenol] |
| – | – | 6.86 | 28 | 8.22 | 82 | Cc1cc(O)ccc1-c1nn(C2CCCC2)c2c(-c3ccccc3)cccc12 [Example 265, 4-(1-cyclopentyl-7-phenyl-1H-indazol-3-yl)-3-methylphenol] |
| – | – | 6.67 | 35 | 7.17 | 77 | Cc1cc(O)ccc1-c1nn(C2CCCC2)c2c(-c3cc4ccccc4s3)cccc12 [Example 266, 4-[7-(1-benzothien-2-yl)-1-cyclopentyl-1H-indazol-3-yl]-3-methylphenol] |
| – | – | 6.60 | 35 | 7.28 | 64 | CC(C)n1nc(-c2ccc(O)cc2)c2cccc(-c3ccco3)c21 [Example 267, 4-[7-(2-furyl)-1-isopropyl-1H-indazol-3-yl]phenol] |
